According to patent US8067454B2, “Thio-substituted Anthra [1, 2-d] imidazole- 6, 11-dione derivatives, preparation method and application thereof” (National Defense Medical Center, priority 2010, dated 2011):

Legend:
[1] = system: MCF7; test: NCI 60-cell drug screen, Breast Cancer MCF7; type: cell-based, human; details: 1.00E−5 Molar
[2] = system: OVCAR-5; test: NCI 60-cell drug screen, Ovarian Cancer OVCAR-5; type: cell-based, human; details: 1.00E−5 Molar
[3] = system: NCI-H460; test: NCI 60-cell drug screen, Non-Small Cell Lung Cancer NCI-H460; type: cell-based, human; details: 1.00E−5 Molar
[4] = system: SVG p12; test: MTT assay, SVG p12 normal cell; details: concentration 10 μM, normal cell
[5] = system: U251; test: NCI 60-cell drug screen, CNS Cancer U251; type: cell-based, human; details: 1.00E−5 Molar
[6] = system: TK-10; test: NCI 60-cell drug screen, Renal Cancer TK-10; type: cell-based, human; details: 1.00E−5 Molar
[7] = system: LOX IMVI; test: NCI 60-cell drug screen, Melanoma LOX IMVI; type: cell-based, human; details: 1.00E−5 Molar
[8] = system: DU-145; test: NCI 60-cell drug screen, Prostate Cancer DU-145; type: cell-based, human; details: 1.00E−5 Molar
[9] = system: SK-MEL-2; test: NCI 60-cell drug screen, Melanoma SK-MEL-2; type: cell-based, human; details: 1.00E−5 Molar
[10] = system: BT-549; test: NCI 60-cell drug screen, Breast Cancer BT-549; type: cell-based, human; details: 1.00E−5 Molar
[11] = system: MOLT-4; test: NCI 60-cell drug screen, Leukemia MOLT-4; type: cell-based, human; details: 1.00E−5 Molar
[12] = system: PC-3; test: NCI 60-cell drug screen, Prostate Cancer PC-3; type: cell-based, human; details: 1.00E−5 Molar
[13] = system: SF-539; test: NCI 60-cell drug screen, CNS Cancer SF-539; type: cell-based, human; details: 1.00E−5 Molar
[14] = system: SF-295; test: NCI 60-cell drug screen, CNS Cancer SF-295; type: cell-based, human; details: 1.00E−5 Molar
[15] = system: GBM8401; test: MTT assay, GBM8401 tumor cell; details: concentration 10 μM, tumor cell
[16] = system: EKVX; test: NCI 60-cell drug screen, Non-Small Cell Lung Cancer EKVX; type: cell-based, human; details: 1.00E−5 Molar
[17] = system: UACC-62; test: NCI 60-cell drug screen, Melanoma UACC-62; type: cell-based, human; details: 1.00E−5 Molar
[18] = system: K-562; test: NCI 60-cell drug screen, Leukemia K-562; type: cell-based, human; details: 1.00E−5 Molar
[19] = system: M14; test: NCI 60-cell drug screen, Melanoma M14; type: cell-based, human; details: 1.00E−5 Molar
[20] = system: A549/ATCC; test: NCI 60-cell drug screen, Non-Small Cell Lung Cancer A549/ATCC; type: cell-based, human; details: 1.00E−5 Molar
[21] = system: SW-620; test: NCI 60-cell drug screen, Colon Cancer SW-620; type: cell-based, human; details: 1.00E−5 Molar
[22] = system: MALME-3M; test: NCI 60-cell drug screen, Melanoma MALME-3M; type: cell-based, human; details: 1.00E−5 Molar
[23] = system: RPMI-8226; test: NCI 60-cell drug screen, Leukemia RPMI-8226; type: cell-based, human; details: 1.00E−5 Molar
[24] = system: IGROV1; test: NCI 60-cell drug screen, Ovarian Cancer IGROV1; type: cell-based, human; details: 1.00E−5 Molar
[25] = system: COLO 205; test: NCI 60-cell drug screen, Colon Cancer COLO 205; type: cell-based, human; details: 1.00E−5 Molar
[26] = system: SF-268; test: NCI 60-cell drug screen, CNS Cancer SF-268; type: cell-based, human; details: 1.00E−5 Molar
[27] = system: SK-MEL-5; test: NCI 60-cell drug screen, Melanoma SK-MEL-5; type: cell-based, human; details: 1.00E−5 Molar
[28] = system: SK-OV-3; test: NCI 60-cell drug screen, Ovarian Cancer SK-OV-3; type: cell-based, human; details: 1.00E−5 Molar
[29] = system: HCC-2998; test: NCI 60-cell drug screen, Colon Cancer HCC-2998; type: cell-based, human; details: 1.00E−5 Molar
[30] = system: 786-0; test: NCI 60-cell drug screen, Renal Cancer 786-0; type: cell-based, human; details: 1.00E−5 Molar
[31] = system: SN12C; test: NCI 60-cell drug screen, Renal Cancer SN12C; type: cell-based, human; details: 1.00E−5 Molar
[32] = system: HCT-15; test: NCI 60-cell drug screen, Colon Cancer HCT-15; type: cell-based, human; details: 1.00E−5 Molar
[33] = system: SR; test: NCI 60-cell drug screen, Leukemia SR; type: cell-based, human; details: 1.00E−5 Molar
[34] = system: NCI-H23; test: NCI 60-cell drug screen, Non-Small Cell Lung Cancer NCI-H23; type: cell-based, human; details: 1.00E−5 Molar
[35] = system: NCI-H322M; test: NCI 60-cell drug screen, Non-Small Cell Lung Cancer NCI-H322M; type: cell-based, human; details: 1.00E−5 Molar
[36] = system: MDA-MB-231/ATCC; test: NCI 60-cell drug screen, Breast Cancer MDA-MB-231/ATCC; type: cell-based, human; details: 1.00E−5 Molar
[37] = system: HL-60(TB); test: NCI 60-cell drug screen, Leukemia HL-60(TB); type: cell-based, human; details: 1.00E−5 Molar
[38] = system: HOP-62; test: NCI 60-cell drug screen, Non-Small Cell Lung Cancer HOP-62; type: cell-based, human; details: 1.00E−5 Molar
[39] = system: OVCAR-4; test: NCI 60-cell drug screen, Ovarian Cancer OVCAR-4; type: cell-based, human; details: 1.00E−5 Molar
[40] = system: RXF 393; test: NCI 60-cell drug screen, Renal Cancer RXF 393; type: cell-based, human; details: 1.00E−5 Molar
[41] = system: NCI-H226; test: NCI 60-cell drug screen, Non-Small Cell Lung Cancer NCI-H226; type: cell-based, human; details: 1.00E−5 Molar
[42] = system: MDA-MB-435; test: NCI 60-cell drug screen, Melanoma MDA-MB-435; type: cell-based, human; details: 1.00E−5 Molar
[43] = system: KM12; test: NCI 60-cell drug screen, Colon Cancer KM12; type: cell-based, human; details: 1.00E−5 Molar
[44] = system: GBM8901; test: MTT assay, GBM8901 tumor cell; details: concentration 10 μM, tumor cell
[45] = system: HOP-92; test: NCI 60-cell drug screen, Non-Small Cell Lung Cancer HOP-92; type: cell-based, human; details: 1.00E−5 Molar
[46] = system: NCI-H522; test: NCI 60-cell drug screen, Non-Small Cell Lung Cancer NCI-H522; type: cell-based, human; details: 1.00E−5 Molar
[47] = system: UO-31; test: NCI 60-cell drug screen, Renal Cancer UO-31; type: cell-based, human; details: 1.00E−5 Molar
[48] = system: SNB-19; test: NCI 60-cell drug screen, CNS Cancer SNB-19; type: cell-based, human; details: 1.00E−5 Molar
[49] = system: SK-MEL-28; test: NCI 60-cell drug screen, Melanoma SK-MEL-28; type: cell-based, human; details: 1.00E−5 Molar
[50] = system: A498; test: NCI 60-cell drug screen, Renal Cancer A498; type: cell-based, human; details: 1.00E−5 Molar
[51] = system: SNB-75; test: NCI 60-cell drug screen, CNS Cancer SNB-75; type: cell-based, human; details: 1.00E−5 Molar
[52] = system: ACHN; test: NCI 60-cell drug screen, Renal Cancer ACHN; type: cell-based, human; details: 1.00E−5 Molar
[53] = system: HCT-116; test: NCI 60-cell drug screen, Colon Cancer HCT-116; type: cell-based, human; details: 1.00E−5 Molar

CCCSc1nc2ccc3c(c2[nH]1)C(=O)c1ccccc1C3=O [f1-2, 2-(propylthio)-1H-anthra[1,2-d]imidazole-6,11-dione]
Growth Percent, MCF7 [1]: 58.97%
Growth Percent, OVCAR-5 [2]: 99.67%
Growth Percent, NCI-H460 [3]: 68.12%
Cell survival rate (%) SVG p12 [4]: 99%
Growth Percent, U251 [5]: 62.95%
Growth Percent, TK-10 [6]: 35.55%
Growth Percent, LOX IMVI [7]: 62.57%
Growth Percent, DU-145 [8]: 69.29%
Growth Percent, SK-MEL-2 [9]: 79.33%
Growth Percent, BT-549 [10]: 76.00%
Growth Percent, MOLT-4 [11]: 68.13%
Growth Percent, PC-3 [12]: 66.76%
Growth Percent, SF-539 [13]: 23.99%
Growth Percent, SF-295 [14]: 37.25%
Cell survival rate (%) GBM8401 [15]: 62 ± 18%
Growth Percent, EKVX [16]: 76.83%
Growth Percent, UACC-62 [17]: 51.07%
Growth Percent, K-562 [18]: 62.88%
Growth Percent, M14 [19]: 89.99%
Growth Percent, A549/ATCC [20]: 59.15%
Growth Percent, SW-620 [21]: 104.18%
Growth Percent, MALME-3M [22]: 88.24%
Growth Percent, RPMI-8226 [23]: 71.75%
Growth Percent, IGROV1 [24]: 53.72%
Growth Percent, COLO 205 [25]: 102.68%
Growth Percent, SF-268 [26]: 47.81%
Growth Percent, SK-MEL-5 [27]: 78.52%
Growth Percent, SK-OV-3 [28]: 38.92%
Growth Percent, HCC-2998 [29]: 81.92%
Growth Percent, 786-0 [30]: 21.82%
Growth Percent, SN12C [31]: 80.41%
Growth Percent, HCT-15 [32]: 67.65%
Growth Percent, SR [33]: 71.03%
Growth Percent, NCI-H23 [34]: 69.80%
Growth Percent, NCI-H322M [35]: 76.02%
Growth Percent, MDA-MB-231/ATCC [36]: 26.44%
Growth Percent, HL-60(TB) [37]: 74.23%
Growth Percent, HOP-62 [38]: 59.09%
Growth Percent, OVCAR-4 [39]: 42.16%
Growth Percent, RXF 393 [40]: 20.07%
Growth Percent, NCI-H226 [41]: 50.24%
Growth Percent, MDA-MB-435 [42]: 77.38%
Growth Percent, KM12 [43]: 55.17%
Cell survival rate (%) GBM8901 [44]: 62 ± 7%
Growth Percent, HOP-92 [45]: 17.25%
Growth Percent, NCI-H522 [46]: 72.38%
Growth Percent, UO-31 [47]: 24.49%
Growth Percent, SNB-19 [48]: 82.03%
Growth Percent, SK-MEL-28 [49]: 92.59%
Growth Percent, A498 [50]: 57.26%
Growth Percent, SNB-75 [51]: −9.55%
Growth Percent, ACHN [52]: 27.16%
Growth Percent, HCT-116 [53]: 47.69%

O=C1c2ccccc2C(=O)c2c1ccc1nc(S)[nH]c21 [f1-0, 2-Mercapto-1(3)H-anthra[1,2-d]imidazole-6,11-dione]
Growth Percent, MCF7 [1]: 75.91%
Growth Percent, OVCAR-5 [2]: 129.22%
Growth Percent, NCI-H460 [3]: 98.61%
Cell survival rate (%) SVG p12 [4]: 82 ± 5%
Growth Percent, U251 [5]: 88.79%
Growth Percent, TK-10 [6]: 111.74%
Growth Percent, LOX IMVI [7]: 84.00%
Growth Percent, DU-145 [8]: 99.28%
Growth Percent, SK-MEL-2 [9]: 134.35%
Growth Percent, BT-549 [10]: 114.30%
Growth Percent, MOLT-4 [11]: 108.60%
Growth Percent, PC-3 [12]: 78.80%
Growth Percent, SF-539 [13]: 91.35%
Growth Percent, SF-295 [14]: 118.09%
Cell survival rate (%) GBM8401 [15]: 86 ± 25%
Growth Percent, EKVX [16]: 50.53%
Growth Percent, UACC-62 [17]: 84.17%
Growth Percent, K-562 [18]: 108.55%
Growth Percent, M14 [19]: 101.06%
Growth Percent, A549/ATCC [20]: 118.18%
Growth Percent, SW-620 [21]: 97.56%
Growth Percent, MALME-3M [22]: 87.50%
Growth Percent, RPMI-8226 [23]: 101.22%
Growth Percent, IGROV1 [24]: 138.25%
Growth Percent, COLO 205 [25]: 103.96%
Growth Percent, SF-268 [26]: 90.30%
Growth Percent, SK-MEL-5 [27]: 86.66%
Growth Percent, SK-OV-3 [28]: 103.17%
Growth Percent, HCC-2998 [29]: 113.65%
Growth Percent, 786-0 [30]: 95.78%
Growth Percent, SN12C [31]: 87.98%
Growth Percent, HCT-15 [32]: 83.78%
Growth Percent, SR [33]: 124.87%
Growth Percent, NCI-H23 [34]: 113.34%
Growth Percent, NCI-H322M [35]: 96.31%
Growth Percent, MDA-MB-231/ATCC [36]: 108.18%
Growth Percent, HL-60(TB) [37]: 97.58%
Growth Percent, HOP-62 [38]: 96.74%
Growth Percent, OVCAR-4 [39]: 91.57%
Growth Percent, RXF 393 [40]: 141.66%
Growth Percent, NCI-H226 [41]: 83.74%
Growth Percent, MDA-MB-435 [42]: 114.02%
Growth Percent, KM12 [43]: 101.59%
Cell survival rate (%) GBM8901 [44]: 78 ± 13%
Growth Percent, HOP-92 [45]: 65.48%
Growth Percent, NCI-H522 [46]: 96.06%
Growth Percent, UO-31 [47]: 97.83%
Growth Percent, SNB-19 [48]: 91.30%
Growth Percent, SK-MEL-28 [49]: 118.39%
Growth Percent, A498 [50]: 94.31%
Growth Percent, SNB-75 [51]: 100.90%
Growth Percent, ACHN [52]: 96.23%
Growth Percent, HCT-116 [53]: 96.31%
